In brackets after ≈: the same amount, converted by molar mass. Activity calls are given as the source filed them. The rule behind the calls is not given here.
Assays:
Staphylococcus aureus [1] = test: Bactericidal activity against methicillin-resistant Staphylococcus aureus JCSC 4744 assessed as reduction in cell survival by measuring colony forming units at MIC measured within 4 hrs by time-kill assay; type: functional
Staphylococcus aureus [2] = test: Antibacterial activity against methicillin-resistant Staphylococcus aureus JCSC 4469 incubated overnight by CLSI protocol based microdilution assay; type: functional
Staphylococcus aureus [3] = test: Bactericidal activity against methicillin-resistant Staphylococcus aureus JCSC 4469 measured after 24 hrs by sub-culturing; type: functional; settings: JCSC 4469, 24 h
Staphylococcus aureus [4] = test: Disruption of membrane integrity in methicillin-reisitant Staphylococcus aureus JCSC 4744 measured after 4 hrs by SYTOX-greeen-based fluorescence assay; type: functional, organism-based
Staphylococcus aureus [5] = test: Antibacterial activity against Staphylococcus aureus CMCC 26003 incubated overnight by CLSI protocol based microdilution assay
Staphylococcus aureus [6] = test: Antibacterial activity against methicillin-resistant Staphylococcus aureus JCSC 4744 incubated overnight by CLSI protocol based microdilution assay; type: functional
Staphylococcus aureus [7] = test: Bactericidal activity against methicillin-resistant Staphylococcus aureus JCSC 4744 assessed as reduction in cell survival by measuring colony forming units at MIC measured within 4 hrs by time-kill assay relative to control; type: functional
Staphylococcus aureus [8] = test: Bactericidal activity against Staphylococcus aureus CMCC 26003 measured after 24 hrs by sub-culturing; settings: CMCC 26003, 24 h
Escherichia coli = test: Antibacterial activity against Escherichia coli ATCC 8739 incubated overnight by CLSI protocol based microdilution assay; type: functional
Staphylococcus aureus [9] = test: Bactericidal activity against methicillin-resistant Staphylococcus aureus JCSC 4744 assessed as reduction in cell survival by measuring colony forming units at MIC after 24 hrs by time-kill assay relative to control; type: functional
Staphylococcus aureus [10] = test: Bactericidal activity against methicillin-resistant Staphylococcus aureus JCSC 4744 measured after 24 hrs by sub-culturing; type: functional; settings: JCSC 4744, 24 h
Staphylococcus aureus [11] = test: Induction of cytoplasmic membrane depolarization in methicillin-resistant Staphylococcus aureus JCSC 4744 at 0.5 to 8 fold MIC by DiSC3-5 dye-based fluorescence assay; type: functional, organism-based
Bacillus cereus [12] = test: Antibacterial activity against Bacillus cereus CMCC 63302 incubated overnight by CLSI protocol based microdilution assay; type: functional
Staphylococcus aureus [13] = test: Induction of cell lysis in methicillin-resistant Staphylococcus aureus JCSC 4744 assessed as formation of membrane disruption at 8 fold MIC after 4 hrs by scanning electron microscopy; type: functional, organism-based
Bacillus cereus [14] = test: Bactericidal activity against Bacillus cereus CMCC 63302 measured after 24 hrs by sub-culturing; type: functional; settings: CMCC 63302, 24 h
Staphylococcus aureus [15] = test: Induction of cell lysis in methicillin-resistant Staphylococcus aureus JCSC 4744 assessed as formation of membrane fissures at 8 fold MIC after 4 hrs by scanning electron microscopy; type: functional, organism-based
Staphylococcus aureus [16] = test: Bactericidal activity against methicillin-resistant Staphylococcus aureus JCSC 4744 assessed as reduction in cell survival at 8 fold MIC measured after 24 hrs by time-kill assay; type: functional, organism-based
Staphylococcus aureus [17] = test: Disruption of membrane integrity in methicillin-reisitant Staphylococcus aureus JCSC 4744 at 10 ug/ml measured within 2 mins by SYTOX-greeen-based fluorescence assay; type: functional, organism-based

For `COC1=C(C(=O)CC(C)C)C(=O)C(O)C1(C)C` (centres undefined), the Activity (Staphylococcus aureus [1]) was 2 log10CFU/ml, the MIC (Staphylococcus aureus [2]) was 3.12 µg/mL (≈ 13 µM) and the MBC (Staphylococcus aureus [3]) was 6.25 µg/mL (≈ 26 µM). For the same compound, the Activity (Staphylococcus aureus [4]) was “Active”, the MIC (Staphylococcus aureus [5]) was 3.12 µg/mL (≈ 13 µM) and the MIC (Staphylococcus aureus [6]) was 1.56 µg/mL (≈ 6.49 µM). The “inhibition (INH)” value (Staphylococcus aureus [7]) was 99%, the MBC (Staphylococcus aureus [8]) was 6.25 µg/mL (≈ 26 µM) and the MIC (Escherichia coli) was greater than 100 µg/mL. For the same compound, the “inhibition (INH)” value (Staphylococcus aureus [9]) was 100%, the MBC (Staphylococcus aureus [10]) was 3.12 µg/mL (≈ 13 µM) and the Activity (Staphylococcus aureus [11]) was “Active”. The MIC (Bacillus cereus [12]) was 12.5 µg/mL (≈ 52 µM), the Activity (Staphylococcus aureus [13]) was “Active” and the MBC (Bacillus cereus [14]) was 25 µg/mL (≈ 104 µM). For the same compound, the Activity (Staphylococcus aureus [15]) was “Active”.

With `COc1cc(O)c(C(=O)CC(C)C)c2c1[C@]1(O)C(O)=C(C(=O)C(C)C)C(=O)C[C@]1(OC)O2` the Activity (Staphylococcus aureus [1]) was 2 log10CFU/ml, the MIC (Staphylococcus aureus [2]) was 3.12 µg/mL (≈ 6.96 µM) and the Activity (Staphylococcus aureus [16]) was “Active”. The MBC (Staphylococcus aureus [3]) was 6.25 µg/mL (≈ 13.9 µM), the Activity (Staphylococcus aureus [4]) was “Active” and the MIC (Staphylococcus aureus [5]) was 25 µg/mL (≈ 55.7 µM). For the same compound, the MIC (Staphylococcus aureus [6]) was 3.12 µg/mL (≈ 6.96 µM), the “inhibition (INH)” value (Staphylococcus aureus [7]) was 99% and the MBC (Staphylococcus aureus [8]) was 50 µg/mL (≈ 111 µM). The MIC (Escherichia coli) was greater than 100 µg/mL, the “inhibition (INH)” value (Staphylococcus aureus [9]) was 100% and the MBC (Staphylococcus aureus [10]) was 6.25 µg/mL (≈ 13.9 µM). For the same compound, the Activity (Staphylococcus aureus [11]) was “Active”, the MIC (Bacillus cereus [12]) was 25 µg/mL (≈ 55.7 µM) and the Activity (Staphylococcus aureus [13]) was “Active”. For the same compound, the MBC (Bacillus cereus [14]) was 50 µg/mL (≈ 111 µM) and the Activity (Staphylococcus aureus [15]) was “Active”.

For `CN[C@H](CC(C)C)C(=O)N[C@H]1C(=O)N[C@@H](CC(N)=O)C(=O)N[C@H]2C(=O)N[C@H]3C(=O)N[C@H](C(=O)N[C@H](C(=O)O)c4cc(O)cc(O)c4-c4cc3ccc4O)[C@H](O)c3ccc(c(Cl)c3)Oc3cc2cc(c3O[C@@H]2O[C@H](CO)[C@@H](O)[C@H](O)[C@H]2O[C@H]2C[C@](C)(N)[C@H](O)[C@H](C)O2)Oc2ccc(cc2Cl)[C@H]1O` [VANCOMYCIN], the Activity (Staphylococcus aureus [1]) was 2 log10CFU/ml, the MIC (Staphylococcus aureus [2]) was 0.78 µg/mL (≈ 0.538 µM) and the MBC (Staphylococcus aureus [3]) was 2.5 µg/mL (≈ 1.73 µM). The MIC (Staphylococcus aureus [5]) was 1.56 µg/mL (≈ 1.08 µM), the MIC (Staphylococcus aureus [6]) was 0.78 µg/mL (≈ 0.538 µM) and the “inhibition (INH)” value (Staphylococcus aureus [7]) was 99%. For the same compound, the MBC (Staphylococcus aureus [8]) was 2.5 µg/mL (≈ 1.73 µM), the MIC (Escherichia coli) was 50 µg/mL (≈ 34.5 µM) and the MBC (Staphylococcus aureus [10]) was 2.5 µg/mL (≈ 1.73 µM). It also gave an MIC (Bacillus cereus [12]) of 50 µg/mL (≈ 34.5 µM).

For `CC[C@H](C)[C@H](NC(=O)CN)C(=O)NCC(=O)N[C@@H](C)C(=O)N[C@H](C(=O)N[C@@H](CC(C)C)C(=O)N[C@@H](CCCCN)C(=O)N[C@H](C(=O)N[C@@H](CC(C)C)C(=O)N[C@H](C(=O)N[C@H](C(=O)NCC(=O)N[C@@H](CC(C)C)C(=O)N1CCC[C@H]1C(=O)N[C@@H](C)C(=O)N[C@@H](CC(C)C)C(=O)N[C@H](C(=O)N[C@@H](CO)C(=O)N[C@@H](Cc1c[nH]c2ccccc12)C(=O)N[C@H](C(=O)N[C@@H](CCCCN)C(=O)N[C@@H](CCCNC(=N)N)C(=O)N[C@@H](CCCCN)C(=O)N[C@@H](CCCNC(=N)N)C(=O)N[C@@H](CCC(N)=O)C(=O)N[C@@H](CCC(N)=O)C(N)=O)[C@@H](C)CC)[C@@H](C)CC)[C@@H](C)O)[C@@H](C)O)C(C)C)C(C)C`, the Activity (Staphylococcus aureus [17]) was “Active”.
